Patent US20080307843A1, “Nitrification inhibitor and soil improver and fertilizer containing the same” (JAPAN INTERNATIONAL RESEARCH CENTER FOR AGRICULTURAL …, priority 2006, published 2008)

How the values were obtained:
[1] = test system: Nitrosomonas europaea IF014298 with luciferase gene (luxAB); experiment: in-vitro nitrification bacteria test, biological luminescence accompanying nitrification reaction; settings: incubation at 15° C. for 30 minutes; for 80% inhibitory concentration: concentration where the nitrification inhibitory ratio became 80%
[2] = in the ordinarily used range; RTECS No. QJ5775000; cited from earlier work

Row | Compound | 80% inhibitory concentration [1] | toxicity [2] | 50% inhibitory concentration ([1]; concentration where the nitrification-inhibitory ratio became 50%)
1 | Clc1cccc(C(Cl)(Cl)Cl)n1 [Comparative Example 14, 2-chloro-6-Trichloromethylpyridine, reference compound] | 4 ppm |  | 
2 | N#CN=C(N)N [Comparative Example 15, dicyanodiamide, reference compound] | 185 ppm |  | 
3 | O=C1C=CC(=O)c2c(O)cccc21 [Example 1, 5-hydroxy-1,4-naphtoquinone] | 0.08 ppm | low toxicity | 0.03 ppm
